Broadly, the EC50 is the concentration that produces a half-maximal response.

SMILES strings stand for the structures.

The text below walks through data of US8889677B2, “Substituted triazoles useful as mGlu5 receptor modulators” (Boehringer Ingellheim International GmbH, priority 2012, dated 2014).

T1 sequence (P41594 21-1212): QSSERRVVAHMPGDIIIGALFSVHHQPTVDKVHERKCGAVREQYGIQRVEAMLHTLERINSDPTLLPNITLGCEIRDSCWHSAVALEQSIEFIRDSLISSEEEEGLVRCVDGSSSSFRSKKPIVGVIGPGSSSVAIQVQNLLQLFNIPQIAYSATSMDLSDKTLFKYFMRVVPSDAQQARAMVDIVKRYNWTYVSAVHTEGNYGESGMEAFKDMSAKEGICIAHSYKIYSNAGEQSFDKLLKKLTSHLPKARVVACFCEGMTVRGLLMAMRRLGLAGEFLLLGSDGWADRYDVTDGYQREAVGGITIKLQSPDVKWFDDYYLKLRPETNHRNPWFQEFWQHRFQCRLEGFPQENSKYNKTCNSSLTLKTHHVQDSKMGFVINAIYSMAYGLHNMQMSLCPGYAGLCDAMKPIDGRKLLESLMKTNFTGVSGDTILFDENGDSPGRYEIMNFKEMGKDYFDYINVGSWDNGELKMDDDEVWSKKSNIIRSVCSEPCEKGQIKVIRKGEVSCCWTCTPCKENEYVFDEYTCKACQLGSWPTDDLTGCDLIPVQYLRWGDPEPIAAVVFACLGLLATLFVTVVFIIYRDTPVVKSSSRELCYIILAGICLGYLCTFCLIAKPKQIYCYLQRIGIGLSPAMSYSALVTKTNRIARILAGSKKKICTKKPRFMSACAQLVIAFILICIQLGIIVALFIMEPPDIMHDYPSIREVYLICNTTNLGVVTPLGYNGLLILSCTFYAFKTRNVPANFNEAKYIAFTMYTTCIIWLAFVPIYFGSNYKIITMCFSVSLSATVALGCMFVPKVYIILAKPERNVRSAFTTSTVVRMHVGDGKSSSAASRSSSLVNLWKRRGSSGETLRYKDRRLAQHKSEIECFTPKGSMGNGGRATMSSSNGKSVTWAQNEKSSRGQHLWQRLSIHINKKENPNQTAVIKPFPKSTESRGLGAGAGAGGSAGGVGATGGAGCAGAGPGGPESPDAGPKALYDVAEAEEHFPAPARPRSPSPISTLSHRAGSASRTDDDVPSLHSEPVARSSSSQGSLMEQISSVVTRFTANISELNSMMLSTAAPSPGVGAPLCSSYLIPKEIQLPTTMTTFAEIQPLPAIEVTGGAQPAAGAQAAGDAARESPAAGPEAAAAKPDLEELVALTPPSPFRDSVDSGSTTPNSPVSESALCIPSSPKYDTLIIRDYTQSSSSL

The assay addresses T1, human recombinant mGluR5 (Homo sapiens, UniProt P41594).
T1 construct: expressed in transfected cells; host or cells: HEK 293 cell line cultured with tetracycline, hygromycin and geneticin; tetracycline removed 3-7 days before the assay
The experiment in a line: positive modulation of mGluR5, calcium based FLIPR assay in HEK 293 cells. Particulars: HEK 293 cell line expressing human recombinant mGluR5; EC50 of the modulation of the glutamate response (glutamate approx. 5% basal stimulation); peak height of Ca release fluorescence signal. On the procedure:
The positive modulation of mGluR5 is measured in a HEK 293 cell line expressing human recombinant mGluR5 and is detected with calcium based FLIPR assay. The cells are cultured with DMEM supplemented with 10% FCS, 2 μg/mL tetracycline, 100 μg/mL hygromycin and 500 μg/mL gneticin. The cell culture media is exchanged for tetracycline-free cell culture media 3-7 days before the assay. One day before the assay the cell culture medium is exchanged to DMEM without glutamine and phenol red and supplemented with 10% FCS, 100 μg/mL hygromycin and 500 μg/mL geneticin. On the assay day, the medium of the subconfluent cultures is removed and the cells are detached by addition of 2.5 ml EDTA (0.02%) per 175 cm2 culture flask for 1 minute. The cells are resuspend in Ringer solution (140 mM NaCl, 5 mM KCl, 2.5 mM CaCl2, 1.5 mM MgCl2, 5 mM Glucose, 10 mM Hepes; adjusted to pH 7.4 with NaOH), pooled and Ringer solution added to adjust the volume to 50 mL. The cell suspension is centrifuged for […] at 1500 U/min (425 g). The supernatant is removed and the cells washed a second time with 50 ml fresh Ringer solution and centrifuged again as before. The supernatant is again removed and the pellet resuspended in Ringer solution to 1,000,000 cells/ml (1×10^6 cells/mL). The cells are plated onto BD BioCoat Poly-D-Lysine 384 well plates (20.000 cells/well; 20 μl/well). The lid covered plates are then incubated until use at 37° C./10% CO2. For dye loading, 20 μl of Calcium-4 assay kit solution (prepared according to the manufacturer's description in Ringer solution) are added to the cells and the plates are incubated for 80 min 37° C. and then 10 min at room temperature.
Controls, Compound Dilution and Assay Execution:
Each assay plate contained wells with “high” and “low” controls:
Low controls 1% DMSO/ringer solution+basal glutamate activation (defined as 100% CTL).
High controls 10 μM CDPPB+basal glutamate activation (defined as 200% CTL).
Test compounds are dissolved and diluted in DMSO to 100-fold the desired concentrations. In a second step, the compounds are diluted in Ringer solution such that the compounds are 4-fold more concentrated than the desired final assay concentration. The final DMSO concentration was 1%.
20 μl of each compound solution are then transferred to the assay plate and the Ca2+ kinetic is measured to determine any intrinsic compound activity. After 5 min incubation in the FLIPR device, the second stimulation with 20 μl of glutamate in Ringer solution (glutamate concentration adjusted to approximately 5% basal stimulation of the maximal possible glutamate effect) is added and the kinetic Ca2+ response of the wells was measured for the modulation effect.
The peak height of the Ca release related fluorescence signal (9-66) is used for the EC50. The EC50 of the modulation is calculated over a nonlinear regression with GraphPad Prism (Table 1).
As to `O=C(Cn1nc(-c2ccc(F)cc2)nc1CCc1ccccc1)N1CCN(c2ncccn2)CC1` [Example 07.04.150.], the EC50 was found to be 323 nM. For the molecule `COc1ccc(-c2nc(-c3ccccc3)n(CC(=O)N3CCN(c4cc(OC)ccn4)CC3)n2)cc1` [Example 07.04.056.], the EC50 came to 64 nM.

Take `COc1cc(N2CCN(C(=O)Cn3nc(-c4ccc(C5CC5)cc4)nc3-c3ccccc3)CC2)ncn1` [Example 07.10.29.]: the concentration for a half-maximal effect (EC50) worked out at 219 nM. The result for `COc1cc(-c2nc(-c3ccc(F)cc3)nn2CC(=O)N2CCN(c3ncccn3)CC2)ccc1F` [Example 07.04.077.] reads 244 nM. As to `Cc1ccnc(N2CCN(C(=O)Cn3nc(-c4ccccc4)nc3-c3ccccc3)CC2)c1` [Example 07.02.28.], the half-maximal effective concentration (EC50) amounted to 243 nM. The result for `Cc1ccnc(N2CCN(C(=O)Cn3nc(-c4ccc(F)c(C)c4)nc3CC(C)C)CC2)c1` [Example 07.04.105.] reads 382 nM; that for `COCCCCOc1cc(N2CCN(C(=O)Cn3nc(-c4ccc(F)cc4)nc3-c3ccc(F)cc3)CC2)ncn1` [Example 07.09.01., 2-(3,5-Bis-(4-fluoro-phenyl)-(1,2,4)triazol-1-yl]-1-(4-(6-(4-methoxy-butoxy)-pyrimidin-4-yl)-piperazin-1-yl)-ethanone], 68 nM; that for `Cc1cc(-c2nc(-c3ccccc3)n(CC(=O)N3CCN(c4ccccn4)CC3)n2)ccc1F` [Example 07.04.061.], 67 nM. With `CCC(C)c1nc(-c2ccc(F)c(C)c2)nn1CC(=O)N1CCN(c2ccccn2)CC1` (stereo not drawn) [Example 07.04.102.], the EC50 was determined as 998 nM.

Consider `O=C(Cn1nc(-c2ccc(F)cc2)nc1-c1ccc(F)cc1)N1CCN(c2cc(O[C@H]3CCOC3)ncn2)CC1` [Example 07.09.11.], for which the EC50 was 56 nM. Next, `COc1ccc(-c2nc(-c3ccc(OC)cc3)n(CC(=O)N3CCN(c4ccc(C)cn4)CC3)n2)cc1` [Example 07.02.11.]: 375 nM. For the molecule `O=C(Cn1nc(-c2ccc(F)cc2)nc1-c1ccc(F)cc1)N1CCN(c2ccccc2F)CC1` [Example 07.04.13.], the EC50 worked out at 1210 nM.

For the molecule `Nc1cc(N2CCN(C(=O)Cn3nc(-c4ccc(F)cc4)nc3-c3ccc(F)cc3)CC2)ncn1` [Example 07.03.28.], the EC50 came out at 319 nM.

For the molecule `O=C(Cn1nc(-c2ccccc2)nc1-c1ccc(CN2CCOCC2)cc1)N1CCN(c2ncccn2)CC1` [Example 07.10.28.], the half-maximal effective concentration (EC50) was 804 nM. With `Cc1cc(-c2nc(C3CCCC(C)C3)n(CC(=O)N3CCN(c4ncccn4)CC3)n2)ccc1F` (stereo not drawn) [Example 07.04.145.], the EC50 was determined as 373 nM.

For `COc1cccc(-c2nc(-c3ccc(F)cc3)n(CC(=O)N3CCN(c4cc(C)ccn4)CC3)n2)c1` [Example 07.04.027.], the concentration giving a half-maximal response (EC50) is 38 nM. `Cc1ccnc(N2CCN(C(=O)Cn3nc(-c4ccc(F)c(C)c4)nc3-c3ccccc3)CC2)c1` [Example 07.04.062.]: the concentration giving a half-maximal response (EC50) came to 57 nM. As for `COc1cc(N2CCN(C(=O)Cn3nc(-c4cccc(C)c4)nc3-c3ccccc3)CC2)ncn1` [Example 07.10.35.], the half-maximal effective concentration (EC50) amounted to 98 nM. The result for `CCCCCc1nc(-c2ccc(F)c(C)c2)nn1CC(=O)N1CCN(c2cc(C)ccn2)CC1` [Example 07.04.125.] reads 109 nM. For the molecule `COc1cccc(-c2nc(C3CCCCC3)n(CC(=O)N3CCN(c4cc(C)ccn4)CC3)n2)c1` [Example 07.04.052.], the concentration for a half-maximal effect (EC50) is 898 nM. For `Cc1cc(-c2nc(C3CCCC3)n(CC(=O)N3CCN(c4ncccn4)CC3)n2)ccc1F` [Example 07.04.111.], the EC50 came to 131 nM. Take `COc1cc(N2CCN(C(=O)Cn3nc(-c4ccc(F)c(C(F)(F)F)c4)nc3-c3ccccc3)CC2)ncn1` [Example 07.10.31.]: the EC50 came out at 270 nM.

As to `COc1ccnc(N2CCN(C(=O)Cn3nc(-c4ccc(F)c(C)c4)nc3C3CCCC3)CC2)c1` [Example 07.04.110.], the concentration giving a half-maximal response (EC50) is 409 nM. In the case of `O=C(Cn1nc(-c2ccc(F)cc2)nc1-c1ccc(F)cc1)N1CCN(c2cc(OCCCN3CCOCC3)ncn2)CC1` [Example 07.09.19.], the concentration giving a half-maximal response (EC50) was determined as 200 nM. In the case of `CCCCCc1nc(-c2ccc(F)c(C)c2)nn1CC(=O)N1CCN(c2cc(OC)ccn2)CC1` [Example 07.04.123.], the EC50 came to 92 nM. The result for `COc1ccc(-c2nc(-c3ccc(F)cc3)nn2CC(=O)N2CCN(c3ccccn3)CC2)cc1` [Example 07.10.41.] reads 182 nM. As for `COc1ccc(-c2nc(-c3ccccc3)n(CC(=O)N3CCN(c4cccc(OC)n4)CC3)n2)cc1` [Example 07.04.159.], the concentration for a half-maximal effect (EC50) is 282 nM.

With `CCOc1ccc(-c2nc(-c3ccccc3)n(CC(=O)N3CCN(c4ncccn4)CC3)n2)cc1` [Example 07.10.13.], the EC50 came to 77 nM.

`Cc1cc(-c2nc(C)n(CC(=O)N3CCN(c4ncccn4)CC3)n2)ccc1F` [Example 07.04.097.]: the EC50 amounted to 1190 nM. As for `COCCCN(C)c1cc(N2CCN(C(=O)Cn3nc(-c4ccc(F)cc4)nc3-c3ccc(F)cc3)CC2)ncn1` [Example 07.08.11.], the concentration giving a half-maximal response (EC50) worked out at 293 nM.

Turning to `CCCCc1nc(-c2ccc(F)c(C)c2)nn1CC(=O)N1CCN(c2cc(C)ccn2)CC1` [Example 07.04.115.], the EC50 was 208 nM. Turning to `CCCCc1nc(-c2ccc(F)c(C)c2)nn1CC(=O)N1CCN(c2cc(OC)ccn2)CC1` [Example 07.04.118.], the EC50 turned out to be 255 nM. `O=C(Cn1nc(-c2ccc(F)cc2)nc1-c1ccc(F)cc1)N1CCN(c2cc(NC3CC3)ncn2)CC1` [Example 07.08.04.]: the 50% effective concentration (EC50) worked out at 430 nM. For the molecule `Cc1ccnc(N2CCN(C(=O)Cn3nc(-c4ccc(F)c(C)c4)nc3C3CCC(C)CC3)CC2)c1` (stereo not drawn) [Example 07.04.130.], the EC50 worked out at 848 nM. As for `CC(C)Nc1cc(N2CCN(C(=O)Cn3nc(-c4ccc(F)cc4)nc3-c3ccc(F)cc3)CC2)ncn1` [Example 07.08.07.], the EC50 worked out at 151 nM.

Regarding `COc1cccc(-c2nc(-c3ccc(F)cc3)nn2CC(=O)N2CCN(c3cc(C)ccn3)CC2)c1` [Example 07.04.025.], the 50% effective concentration (EC50) was determined as 868 nM. Regarding `O=C(Cn1nc(-c2ccc(F)cc2)nc1-c1ccc(F)cc1)N1CCN(c2cc(OCC3CCOC3)ncn2)CC1` (stereo not drawn) [Example 07.09.05.], the concentration giving a half-maximal response (EC50) stood at 41 nM. The result for `COc1ccnc(N2CCN(C(=O)Cn3nc(-c4ccc(F)c(C)c4)nc3C3CCC(C)CC3)CC2)c1` (stereo not drawn) [Example 07.04.131.] reads 1000 nM; that for `CCC(C)c1nc(-c2ccc(F)c(C)c2)nn1CC(=O)N1CCN(c2cc(OC)ncn2)CC1` (stereo not drawn) [Example 07.04.103.], 748 nM. For `CC(C)c1ccc(-c2nc(-c3ccccc3)nn2CC(=O)N2CCN(c3ncccn3)CC2)cc1` [Example 07.10.20.], the EC50 is 35 nM. The result for `CCc1nc(-c2ccc(OC(F)F)cc2)nn1CC(=O)N1CCN(c2ncccn2)CC1` [Example 7.04.163] reads 850 nM.

Take `Cc1ccnc(N2CCN(C(=O)Cn3nc(-c4ccc(F)c(C)c4)nc3CCC(C)C)CC2)c1` [Example 07.04.121.]: the EC50 is 209 nM. With `Cc1ccnc(N2CCN(C(=O)Cn3nc(-c4ccc(F)c(C)c4)nc3C3CCCC(C)C3)CC2)c1` (stereo not drawn) [Example 07.04.146.], the EC50 is 1340 nM.

In the case of `Cc1cc(-c2nc(C(C)C)n(CC(=O)N3CCN(c4ncccn4)CC3)n2)ccc1F` [Example 07.04.089.], the EC50 is 340 nM. In the case of `CN(C)c1nccc(N2CCN(C(=O)Cn3nc(-c4ccc(F)cc4)nc3-c3ccc(F)cc3)CC2)n1` [Example 07.03.22.], the EC50 is 476 nM.
